Reference: article PMC10674299, “Discovery of Guanfacine as a Novel TAAR1 Agonist: A Combination Strategy through Molecular Modeling Studies and Biological Assays” (Pharmaceuticals, 2023)
Read-outs that look alike come from different tables or passages of the source.

What was measured:
[1] = molecular target: α2-ADR; design: method as in PMID 22795332; conditions: cited from earlier work
[2] = molecular target: T1, hTAAR1 (Homo sapiens, UniProt Q96RJ0); conditions: S18616; cited from earlier work
T1 construct: Plasmid containing the cDNA for hTAAR1 was a generous gift from Hoffman-La Roche; expressed in transfected cells; host or cells: HEK293T (ATCC CRL-11268), transient transfection with Lipofectamine 2000
T1 sequence (Q96RJ0 1-339): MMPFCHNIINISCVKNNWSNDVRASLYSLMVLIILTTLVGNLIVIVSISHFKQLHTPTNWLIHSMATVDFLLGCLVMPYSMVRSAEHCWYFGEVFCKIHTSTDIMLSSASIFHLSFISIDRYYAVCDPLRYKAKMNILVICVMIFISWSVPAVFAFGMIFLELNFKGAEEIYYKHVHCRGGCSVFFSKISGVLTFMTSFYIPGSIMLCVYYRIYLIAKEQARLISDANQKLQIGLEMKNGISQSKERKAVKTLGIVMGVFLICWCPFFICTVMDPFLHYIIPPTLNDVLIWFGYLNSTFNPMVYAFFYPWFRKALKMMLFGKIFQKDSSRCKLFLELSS

[3] = system: α2-ADR; conditions: cited from earlier work
[4] = molecular target: T1, hTAAR1; assay: BRET-based cAMP assay in HEK293 cells transfected with hTAAR1 and cAMP biosensor; assay type: cell-based; conditions: for EC50: HEK293, dose-response 1 nM to 10 μM, IBMX 200 µM
Procedure: hTAAR1 is coupled to stimulatory G proteins and thus its activation induces an increase in the cAMP production. We measured the potential activity of guanfacine and guanabenz by using a BRET-based assay in which HEK293 cells were transfected with hTAAR1, or the empty vector as control, and the cAMP BRET biosensor. […] A dose-response experiment was performed using concentrations ranging from 1 nM to 10 μM to calculate the corresponding EC50 and the Emax values.
Human embryonic kidney 293 cells (HEK293T; ATCC CRL-11268) were maintained in Dulbecco’s Modified Eagle’s medium (DMEM; Gibco-Thermo Fisher Scientific, New York, NY, USA) supplemented with 10% (v/v) of FBS, 2 mM l-glutamine, and 0.05 mg/mL of gentamicin (both from Gibco) at 37 °C in a humidified atmosphere at 95% air and 5% CO2. Transient transfections were performed 24 h after cell seeding using the Lipofectamine reagent 2000 protocol (Invitrogen-Thermo Fisher Scientific, Carlsbad, USA). Then, 5 µg of hTAAR1 and 4 µg of cAMP biosensor protein (EPAC) encoding plasmids (the latter based on pcDNA3 core vector [59]) for each milliliter of transfection mix were used. For the BRET experiments, the cells were plated 6 h after transfection in poly-D-lysine coated 96-well white opaque microplates (Corning, New York, NY, USA) at a density of 7 × 10^4 cells per well in phenol red free Minimum Essential Medium (MEM; Gibco-Thermo Fisher Scientific, New York, NY, USA) containing 2% of FBS, 10 mM HEPES buffering agent, and 2 mM L-glutamine (all from Gibco-Thermo Fisher Scientific, New York, NY, USA). The cells were then cultured for an additional 24 h.
The BRET experiment was conducted as already described. Briefly, for time course experiments, the plate was read immediately after the addition of the agonist and for approximately 20 min. All the experiments were conducted in the presence of the phosphodiesterase inhibitor 3-isobutyl-1-methylxanthine (IBMX; Sigma-Aldrich, St. Louis, MO, USA) at the final concentration of 200 µM. Readings were collected using a Tecan Infinite instrument that allows the sequential integration of the signals detected in the 465 to 505 nm and 515 to 555 nm windows using filters with the appropriate band pass and by using iControl software. The acceptor/donor ratio was then calculated.
All the compounds were dissolved in dimethyl sulfoxide (DMSO; Sigma-Aldrich, St. Louis, MO, USA) and tested at the final concentration of 10 μM. Beta-phenylethylamine (Sigma-Aldrich, St. Louis, MO, USA) at the final concentration of 10 µM was applied as a positive control. To confirm specificity of positive responses, parallel screening on cells not transfected with the TAAR1-encoding vector was carried out. For compounds considered active, separate dose-response experiments were performed in order to calculate the EC50 values. Curves were fitted using a non-linear regression and one site specific binding with GraphPad Prism 6 (GraphPad Software). Data are representative of 4–5 independent experiments and are expressed as means, SD < 10%.

[5] = system: mTAAR1; design: method as in PMID 19725810; conditions: cited from earlier work
[6] = molecular target: chimeric receptor cTAAR1; design: method as in PMID 19725810; conditions: cited from earlier work
[7] = system: mTAAR1; design: method as in doi:10.1039/C5MD00400D; conditions: BRET cAMP reporter; cited from earlier work
[8] = system: DAT-KO rats; assay: Locomotor activity of DAT-KO rats (Actometer); assay type: in vivo, rat; conditions: 0.1 and 0.3 mg/kg i/p, 60 min, vs vehicle p < 0.001 and p = 0.02 (Bonferroni)
Procedure: To evaluate the in vivo pharmacological effect of guanfacine, we used a rodent model of hyperdopaminergia, the dopamine transporter knockout (DAT-KO) rats, that also mimics some phenotypic aspect of ADHD and has certain predictive validity for the search of novel pharmacological agents to control hyperactivity and cognitive processes in patients with this disease. […] Thus, the effect of guanfacine on hyperactivity of DAT-KO rats was evaluated.
Results are presented on Figure 15. […] We used the mixed ANOVA (the within-subject factors ‘5-min bin’ (1–12) and ‘dose’ (0.0; 0.1; 0.3 mg/kg), the between-subject factor ‘mutation’ (‘WT’; ‘KO’); the random factor ‘rat #’) on rank-transformed data to analyze results. […] Locomotor activity of the rats decreased from the 1st to the 12th bin (the effect of factor ‘5-min bin’: F(11,51) = 2.51, p = 0.01). The lack of DAT was associated with an increased level of locomotor activity (the effect of factor ‘mutation’: F(1,11) = 222.94, p < 0.001). […] We used Bonferroni’s test for post hoc comparisons. […]
The study was performed in the apparatus ‘Actometer’ described in detail before. […] Following the injection, the locomotor activity of the animals was recorded for an additional 60 min divided in 12 intervals of 5-min each. […]

[9] = design: method as in PMID 12351753; conditions: animal studies, cited from earlier work

c1ccc(CC2=NCCN2)cc1 [5a]
Ki [1]: 98.4 nM

c1ccc(Cc2ncc[nH]2)cc1 [6a]
Ki [1]: 1880 nM

NC1=NC2(CCc3cccc(Cl)c3C2)CO1 (stereo not drawn) [S18616]
EC50 [2]: 15 nM
EC50 ([3]; S18616): 0.7 nM

CC(C)N(Cc1c[nH]cn1)c1ccc(Cl)cc1 [compound 24]
Ki [1]: 840 nM

CCN(Cc1ncc[nH]1)c1ccccc1 [compound 51]
Ki [1]: 254 to 497 nM

N=C(N)N/N=C/c1c(Cl)cccc1Cl [guanabenz]
Emax ([4]; HEK293, read-out: hTAAR1 Emax): > 85%
type of agonism at hTAAR1 ([4]; cAMP BRET, HEK293): full agonists
EC50 ([4]; cAMP BRET): 10 nM
EC50 ([3]; guanabenz): ~16.3 nM
EC50 [5]: 7 nM
type of agonism at mTAAR1 [5]: partial agonist
EC50 ([6]; chimeric human/mouse receptor): 25 nM
type of agonism at cTAAR1 [6]: partial agonist
EC50 [7]: 90 nM
type of agonism at mTAAR1 [7]: full agonist

N=C(N)NC(=O)Cc1c(Cl)cccc1Cl [guanfacine]
type of agonism at hTAAR1 ([4]; cAMP BRET, HEK293): full agonists
EC50 ([4]; cAMP BRET): 20 nM
Emax ([4]; cAMP BRET, HEK293, read-out: hTAAR1 Emax): > 85%
EC50 ([3]; guanfacine): ~25.1 nM
effect on locomotor activity [8]: decreased locomotor activity
adverse effects ([9]; higher doses (10 mg/Kg)): provoked more relevant adverse effects
effect on working memory ([9]; low doses (0.5–1 mg/Kg)): improved working memory without reducing blood pressure or causing significant sedation

NCCc1ccccc1 [β-PEA, β-phenylethylamine]
EC50 ([4]; cAMP BRET): 202 nM
